Where “and” joins values, the source holds several entries; their conditions need not be identical. Equal entries are not always repeated. Toxic doses and inconclusive results are not listed. Square brackets hold non-standard residues; d marks the D form. Peptide text beside a SMILES is read from it. * marks the point of attachment. ξ: configuration not given here. Cbz = O=C(OCc1ccccc1)*; ξV = CC(C)C(N)C(=O)O; OBn = c1ccc(CO*)cc1
Test system: L1210 leukemia ip in BDF1 mice, survival T/C
Assay: NCI In Vivo Anticancer Drug Screen. Data for tumor model L1210 Leukemia (intraperitoneal) in B6D2F1 (BDF1) mice
Conditions: endpoint: mean survival time, higher = longer survival
Procedure, shortened: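 Read-out is survival time, reported as the treated-group measurement over the vehicle-control measurement.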

[1] = dose: 100.0 mg/kg/injection, schedule: Q01DX009 (ip), vehicle: Klucel (hydroxypropylcellulose) (HPC)
[2] = dose: 200.0 mg/kg/injection, schedule: Q01DX009 (ip), vehicle: Klucel (hydroxypropylcellulose) (HPC)
[3] = dose: 400.0 mg/kg/injection, schedule: Q01DX009 (ip), vehicle: Klucel (hydroxypropylcellulose) (HPC)
[4] = dose: 100.0 mg/kg/injection, schedule: Q04DX002 (ip), vehicle: saline
[5] = dose: 100.0 mg/kg/injection, schedule: Q04DX003 (ip), vehicle: Klucel (hydroxypropylcellulose) (HPC)
[6] = dose: 200.0 mg/kg/injection, schedule: Q04DX003 (ip), vehicle: Klucel (hydroxypropylcellulose) (HPC)
[7] = dose: 400.0 mg/kg/injection, schedule: Q04DX003 (ip), vehicle: Klucel (hydroxypropylcellulose) (HPC)
[8] = dose: 100.0 mg/kg/injection, schedule: Q04DX002 (ip), vehicle: saline with Tween-80
[9] = dose: 100.0 mg/kg/injection, schedule: Q04DX003 (ip), vehicle: saline with Tween-80
[10] = dose: 200.0 mg/kg/injection, schedule: Q04DX002 (ip), vehicle: saline with Tween-80
[11] = dose: 200.0 mg/kg/injection, schedule: Q04DX003 (ip), vehicle: saline with Tween-80
[12] = dose: 400.0 mg/kg/injection, schedule: Q04DX002 (ip), vehicle: saline with Tween-80
[13] = dose: 400.0 mg/kg/injection, schedule: Q04DX003 (ip), vehicle: saline with Tween-80
[14] = dose: 100.0 mg/kg/injection, schedule: Q01DX009 (ip), vehicle: saline with Tween-80
[15] = dose: 200.0 mg/kg/injection, schedule: Q01DX009 (ip), vehicle: saline with Tween-80
[16] = dose: 50.0 mg/kg/injection, schedule: Q01DX009 (ip), vehicle: saline
[17] = dose: 100.0 mg/kg/injection, schedule: Q01DX009 (ip), vehicle: saline
[18] = dose: 200.0 mg/kg/injection, schedule: Q01DX009 (ip), vehicle: saline
[19] = dose: 100.0 mg/kg/injection, schedule: Q01DX001 (ip), vehicle: Klucel (hydroxypropylcellulose) (HPC)
[20] = dose: 200.0 mg/kg/injection, schedule: Q01DX001 (ip), vehicle: Klucel (hydroxypropylcellulose) (HPC)
[21] = dose: 400.0 mg/kg/injection, schedule: Q01DX001 (ip), vehicle: Klucel (hydroxypropylcellulose) (HPC)

With `Nc1nc2c(c(=O)[nH]1)CN(C(CCc1ccc(N(CCCl)CCCl)cc1)C(=O)O)CN2` (stereo unspecified) the T/C (dose: 12.5 mg/kg/injection, schedule: Q01DX001 (ip), vehicle: carboxymethylcellulose (CMC)) was 111 % of control, the T/C (dose: 25.0 mg/kg/injection, schedule: Q01DX001 (ip), vehicle: carboxymethylcellulose (CMC)) was 107 % of control and the T/C (dose: 50.0 mg/kg/injection, schedule: Q01DX001 (ip), vehicle: carboxymethylcellulose (CMC)) was 113 % of control. For the same molecule, the T/C (dose: 50.0 mg/kg/injection, schedule: Q01DX009 (ip), vehicle: carboxymethylcellulose (CMC)) was 101 % of control, the T/C (dose: 100.0 mg/kg/injection, schedule: Q01DX001 (ip), vehicle: carboxymethylcellulose (CMC)) was 111 % of control and the T/C (dose: 100.0 mg/kg/injection, schedule: Q01DX009 (ip), vehicle: carboxymethylcellulose (CMC)) was 108 % of control.

With `COc1ccc(NC(=O)Oc2ccc(F)cc2Cl)c(OC)c1` the T/C [1] was 97 % of control, the T/C [2] was 95 % of control and the T/C [3] was 101 % of control.

With `[NH-]C(CC(N)=O)C(=O)O.[NH-]C(CC(N)=O)C(=O)O.[Ni+2]` (stereo unspecified) the T/C (dose: 6.25 mg/kg/injection, schedule: Q01DX009 (ip), vehicle: water) was 92 % of control, the T/C (dose: 12.5 mg/kg/injection, schedule: Q01DX009 (ip), vehicle: water) was 91 % of control and the T/C (dose: 25.0 mg/kg/injection, schedule: Q01DX009 (ip), vehicle: water) was 88 % of control. The T/C (dose: 25.0 mg/kg/injection, schedule: Q04DX002 (ip), vehicle: saline) was 110 % of control, the T/C (dose: 50.0 mg/kg/injection, schedule: Q04DX002 (ip), vehicle: saline) was 100 % of control and the T/C (dose: 50.0 mg/kg/injection, schedule: Q04DX003 (ip), vehicle: water) was 112 % of control. For the same molecule, the T/C [4] was 123 % of control and the T/C (dose: 100.0 mg/kg/injection, schedule: Q04DX003 (ip), vehicle: water) was 117 % of control.

`Cc1ccc(NN)cc1Cl` was tested, and the T/C [5] was 105 % of control and the T/C [6] was 91 % of control.

`CC(C)C(NC(=O)CNC(=O)CNC(=O)OCc1ccccc1)C(=O)OCc1ccccc1` (stereo not drawn) (Cbz-Gly-Gly-[ξV]-OBn) was tested, and the T/C [5] was 95 % of control, the T/C [6] was 96 % of control and the T/C [7] was 96 % of control.

In the case of `NCCCC(N)C(=O)O` (stereo unspecified), the T/C (dose: 100.0 mg/kg/injection, schedule: Q01DX001 (ip), vehicle: saline) is reported as 98 % of control, the T/C (dose: 200.0 mg/kg/injection, schedule: Q01DX001 (ip), vehicle: saline) is reported as 102 % of control and the T/C (dose: 400.0 mg/kg/injection, schedule: Q01DX001 (ip), vehicle: saline) is reported as 106 % of control.

`Nc1ccc(SCCC(=O)O)cc1` was tested, and the T/C (dose: 75.0 mg/kg/injection, schedule: Q01DX001 (ip), vehicle: other) was 96 % of control and 97 % of control and the T/C (dose: 150.0 mg/kg/injection, schedule: Q01DX001 (ip), vehicle: other) was 105 % of control.

In the case of `COC(=O)c1ccccc1NC(OC)c1cccc([N+](=O)[O-])c1` (stereo unspecified), the T/C (dose: 100.0 mg/kg/injection, schedule: Q01DX001 (ip), vehicle: saline with Tween-80) is reported as 90 % of control, the T/C [8] is reported as 93 % of control and 89 % of control and the T/C [9] is reported as 92 % of control. For the same molecule, the T/C (dose: 200.0 mg/kg/injection, schedule: Q01DX001 (ip), vehicle: saline with Tween-80) was 92 % of control, the T/C [10] was 86 % of control and 90 % of control and the T/C [11] was 92 % of control. The T/C (dose: 400.0 mg/kg/injection, schedule: Q01DX001 (ip), vehicle: saline with Tween-80) was 87 % of control, the T/C [12] was 87 % of control and the T/C [13] was 89 % of control.

For `CCCCCCCCCCCCCCCCN1CCN(CCCCCCCCCCCCCCCC)CC1`, the T/C (dose: 100.0 mg/kg/injection, schedule: Q04DX002 (ip), vehicle: Klucel (hydroxypropylcellulose) (HPC)) was 108 % of control, the T/C (dose: 200.0 mg/kg/injection, schedule: Q04DX002 (ip), vehicle: Klucel (hydroxypropylcellulose) (HPC)) was 101 % of control and the T/C (dose: 400.0 mg/kg/injection, schedule: Q04DX002 (ip), vehicle: Klucel (hydroxypropylcellulose) (HPC)) was 101 % of control.

For `O=CNCc1cnccn1`, the T/C [14] was 93 % of control, the T/C [15] was 95 % of control and the T/C (dose: 400.0 mg/kg/injection, schedule: Q01DX009 (ip), vehicle: saline with Tween-80) was 97 % of control.

`NP(=O)(N1CC1)N1CC1` was tested, and the T/C (dose: 1.0 mg/kg/injection, schedule: Q01DX001 (ip), vehicle: carboxymethylcellulose (CMC)) was 110 % of control, the T/C (dose: 1.0 mg/kg/injection, schedule: Q01DX015 (ip), vehicle: carboxymethylcellulose (CMC)) was 116 % of control and the T/C (dose: 2.0 mg/kg/injection, schedule: Q01DX001 (ip), vehicle: carboxymethylcellulose (CMC)) was 124 % of control. For the same molecule, the T/C (dose: 4.0 mg/kg/injection, schedule: Q01DX001 (ip), vehicle: carboxymethylcellulose (CMC)) was 110 % of control, the T/C (dose: 15.0 mg/kg/injection, schedule: Q01DX001 (ip), vehicle: carboxymethylcellulose (CMC)) was 150 % of control and the T/C (dose: 30.0 mg/kg/injection, schedule: Q01DX001 (ip), vehicle: carboxymethylcellulose (CMC)) was 186 % of control.

In the case of `COC(=O)C(O)C(O)C(O)C(O)C(=O)OC` (stereo unspecified), the T/C (dose: 50.0 mg/kg/injection, schedule: Q04DX002 (ip), vehicle: saline with Tween-80) is reported as 101 % of control, the T/C [8] is reported as 96 % of control and the T/C [10] is reported as 90 % of control. For the same molecule, the T/C [12] was 93 % of control.

With `Cc1ccc(S(=O)(=O)OCC(CO)(COS(=O)(=O)c2ccc(C)cc2)[N+](=O)[O-])cc1` the T/C [16] was 104 % of control, the T/C [17] was 94 % of control and the T/C [5] was 97 % of control. The T/C [18] was 96 % of control and the T/C [6] was 105 % of control.

For `CCOC(=O)c1ccc(NCCC(=O)CBr)cc1`, the T/C (dose: 5.0 mg/kg/injection, schedule: Q01DX001 (ip), vehicle: carboxymethylcellulose (CMC)) was 97 % of control, the T/C (dose: 10.0 mg/kg/injection, schedule: Q01DX001 (ip), vehicle: carboxymethylcellulose (CMC)) was 97 % of control and the T/C (dose: 20.0 mg/kg/injection, schedule: Q01DX001 (ip), vehicle: carboxymethylcellulose (CMC)) was 92 % of control. For the same molecule, the T/C (dose: 40.0 mg/kg/injection, schedule: Q01DX001 (ip), vehicle: carboxymethylcellulose (CMC)) was 100 % of control.

For `CCCCn1c(=O)cc[nH]c1=O`, the T/C [5] was 99 % of control, the T/C [6] was 91 % of control and the T/C [7] was 93 % of control.

With `Cc1cc(C)n(/N=C/c2ccccn2)c(=O)c1C#N` the T/C (dose: 75.0 mg/kg/injection, schedule: Q04DX003 (ip), vehicle: Klucel (hydroxypropylcellulose) (HPC)) was 94 % of control, the T/C [19] was 97 % of control and the T/C (dose: 150.0 mg/kg/injection, schedule: Q04DX003 (ip), vehicle: Klucel (hydroxypropylcellulose) (HPC)) was 97 % of control. For the same molecule, the T/C [20] was 97 % of control, the T/C (dose: 300.0 mg/kg/injection, schedule: Q04DX003 (ip), vehicle: Klucel (hydroxypropylcellulose) (HPC)) was 100 % of control and the T/C [21] was 102 % of control.

`CCN(CC)CCOc1ccc(/C=C(/C(=O)c2ccccc2)c2ccccc2)cc1` was tested, and the T/C (dose: 100.0 mg/kg/injection, schedule: Q04DX003 (sc), vehicle: olive oil, sesame oil, peanut oil) was 101 % of control, the T/C (dose: 200.0 mg/kg/injection, schedule: Q04DX003 (sc), vehicle: olive oil, sesame oil, peanut oil) was 101 % of control and the T/C (dose: 400.0 mg/kg/injection, schedule: Q04DX003 (sc), vehicle: olive oil, sesame oil, peanut oil) was 101 % of control.

In the case of `CC[As](=O)(O)CC`, the T/C [16] is reported as 97 % of control, the T/C [17] is reported as 120 % of control and the T/C (dose: 100.0 mg/kg/injection, schedule: Q04DX003 (ip), vehicle: saline) is reported as 101 % of control. The T/C [18] was 105 % of control and the T/C (dose: 200.0 mg/kg/injection, schedule: Q04DX003 (ip), vehicle: saline) was 107 % of control.

In the case of `O=C(O)CSCCCc1ccccc1`, the T/C (dose: 50.0 mg/kg/injection, schedule: Q01DX009 (ip), vehicle: saline with Tween-80) is reported as 101 % of control, the T/C [14] is reported as 95 % of control and the T/C [9] is reported as 102 % of control. For the same molecule, the T/C [15] was 101 % of control, the T/C [11] was 102 % of control and the T/C [13] was 102 % of control.

In the case of `N.N.N.N.N.N#CN=C(N)N.[Co+3].[O-][Cl+3]([O-])([O-])[O-]`, the T/C [4] is reported as 171 % of control.

For `CCCCN(CCCC)c1ccc(/C=C/c2ccncc2)cc1`, the T/C [19] was 95 % of control, the T/C [1] was 93 % of control and the T/C [20] was 101 % of control. The T/C [2] was 101 % of control, the T/C [21] was 96 % of control and the T/C [3] was 90 % of control.

Source: PubChem BioAssay AID248 (DTP/NCI, 2004)
